These are literature values, as cited in US6852335B2, “Folic acid in solid dosage forms” (Shaklee Corporation, priority 1999, dated 2005).

The conditions of this series: 25° C. (The Merck Index, 12th edition).

For the compound `Nc1nc2ncc(CNc3ccc(C(=O)N[C@@H](CCC(=O)O)C(=O)O)cc3)nc2c(=O)[nH]1` [Folic acid], the solubility in water entry was “approximately 1.6 mcg/ml”.
